# Test results as given in ChEMBL document CHEMBL1781873, “Synthesis and antibacterial property of pyrrolopyrano quinolinones and pyrroloquinolines” (2011).
# Calls of active or inactive are those of the source. The rule behind the calls is not given here.
# Columns and labels:
# Salmonella typhi [1] = test: Antibacterial activity against Salmonella typhi at 10 ug after 24 hrs by disc diffusion assay; format: functional, Salmonella enterica subsp. enterica serovar Typhi; details: Salmonella enterica, read-out: IZ
# Salmonella typhi [2] = test: Antibacterial activity against Salmonella typhi at 15 ug after 24 hrs by disc diffusion assay; format: functional, Salmonella enterica subsp. enterica serovar Typhi; details: Salmonella enterica, read-out: IZ
# Salmonella typhi [3] = test: Antibacterial activity against Salmonella typhi at 20 ug after 24 hrs by disc diffusion assay; format: functional, Salmonella enterica subsp. enterica serovar Typhi; details: Salmonella enterica, read-out: IZ
# Salmonella typhi [4] = test: Antibacterial activity against Salmonella typhi at 25 ug after 24 hrs by disc diffusion assay; format: functional, Salmonella enterica subsp. enterica serovar Typhi; details: Salmonella enterica, read-out: IZ
# Bacillus subtilis [5] = test: Antibacterial activity against Bacillus subtilis at 5 ug after 24 hrs by disc diffusion assay; details: read-out: IZ
# Bacillus subtilis [6] = test: Antibacterial activity against Bacillus subtilis at 10 ug after 24 hrs by disc diffusion assay; format: functional; details: read-out: IZ
# Bacillus subtilis [7] = test: Antibacterial activity against Bacillus subtilis at 15 ug after 24 hrs by disc diffusion assay; format: functional; details: read-out: IZ
# Bacillus subtilis [8] = test: Antibacterial activity against Bacillus subtilis at 20 ug after 24 hrs by disc diffusion assay; format: functional; details: read-out: IZ
# Bacillus subtilis [9] = test: Antibacterial activity against Bacillus subtilis at 25 ug after 24 hrs by disc diffusion assay; format: functional; details: read-out: IZ
# Escherichia coli [10] = test: Inhibition of Escherichia coli DNA gyrase assessed as inhibition of DNA supercoiling activity using pBR322 DNA as substrate at […] after 3 hrs by agarose gel electrophoresis
# Escherichia coli [11] = test: Inhibition of Escherichia coli DNA gyrase -mediated DNA relaxation using pBR322 DNA as substrate at […] after 1 hrs by agarose gel electrophoresis
# Staphylococcus aureus [12] = test: Antibacterial activity against Staphylococcus aureus after 18 to 20 hrs by broth micro dilution assay; format: functional
# Escherichia coli [13] = test: Antibacterial activity against Escherichia coli after 18 to 20 hrs by broth micro dilution assay; format: functional
# Klebsiella pneumoniae [14] = test: Antibacterial activity against Klebsiella pneumoniae after 18 to 20 hrs by broth micro dilution assay; format: functional
# Pseudomonas aeruginosa [15] = test: Antibacterial activity against Pseudomonas aeruginosa after 18 to 20 hrs by broth micro dilution assay; format: functional
# Salmonella typhi [16] = test: Antibacterial activity against Salmonella typhi after 18 to 20 hrs by broth micro dilution assay; format: functional, Salmonella enterica subsp. enterica serovar Typhi; details: Salmonella enterica
# Bacillus subtilis [17] = test: Antibacterial activity against Bacillus subtilis after 18 to 20 hrs by broth micro dilution assay; format: functional
# Staphylococcus aureus [18] = test: Antibacterial activity against Staphylococcus aureus at 5 ug after 24 hrs by disc diffusion assay; format: functional; details: read-out: IZ
# Staphylococcus aureus [19] = test: Antibacterial activity against Staphylococcus aureus at 10 ug after 24 hrs by disc diffusion assay; format: functional; details: read-out: IZ
# Staphylococcus aureus [20] = test: Antibacterial activity against Staphylococcus aureus at 15 ug after 24 hrs by disc diffusion assay; format: functional; details: read-out: IZ
# Staphylococcus aureus [21] = test: Antibacterial activity against Staphylococcus aureus at 20 ug after 24 hrs by disc diffusion assay; format: functional; details: read-out: IZ
# Staphylococcus aureus [22] = test: Antibacterial activity against Staphylococcus aureus at 25 ug after 24 hrs by disc diffusion assay; format: functional; details: read-out: IZ
# Escherichia coli [23] = test: Antibacterial activity against Escherichia coli at 10 ug after 24 hrs by disc diffusion assay; format: functional; details: read-out: IZ
# Escherichia coli [24] = test: Antibacterial activity against Escherichia coli at 15 ug after 24 hrs by disc diffusion assay; format: functional; details: read-out: IZ
# Pseudomonas aeruginosa [25] = test: Antibacterial activity against Pseudomonas aeruginosa at 5 ug after 24 hrs by disc diffusion assay; format: functional; details: read-out: IZ
# Pseudomonas aeruginosa [26] = test: Antibacterial activity against Pseudomonas aeruginosa at 10 ug after 24 hrs by disc diffusion assay; format: functional; details: read-out: IZ
# Pseudomonas aeruginosa [27] = test: Antibacterial activity against Pseudomonas aeruginosa at 15 ug after 24 hrs by disc diffusion assay; format: functional; details: read-out: IZ
# Pseudomonas aeruginosa [28] = test: Antibacterial activity against Pseudomonas aeruginosa at 20 ug after 24 hrs by disc diffusion assay; format: functional; details: read-out: IZ
# Pseudomonas aeruginosa [29] = test: Antibacterial activity against Pseudomonas aeruginosa at 25 ug after 24 hrs by disc diffusion assay; format: functional; details: read-out: IZ
# Klebsiella pneumoniae [30] = test: Antibacterial activity against Klebsiella pneumoniae at 5 ug after 24 hrs by disc diffusion assay; format: functional; details: read-out: IZ
# Klebsiella pneumoniae [31] = test: Antibacterial activity against Klebsiella pneumoniae at 10 ug after 24 hrs by disc diffusion assay; format: functional; details: read-out: IZ
# Klebsiella pneumoniae [32] = test: Antibacterial activity against Klebsiella pneumoniae at 15 ug after 24 hrs by disc diffusion assay; format: functional; details: read-out: IZ
# Klebsiella pneumoniae [33] = test: Antibacterial activity against Klebsiella pneumoniae at 20 ug after 24 hrs by disc diffusion assay; format: functional; details: read-out: IZ
# Klebsiella pneumoniae [34] = test: Antibacterial activity against Klebsiella pneumoniae at 25 ug after 24 hrs by disc diffusion assay; format: functional; details: read-out: IZ
# Salmonella typhi [35] = test: Antibacterial activity against Salmonella typhi at 5 ug after 24 hrs by disc diffusion assay; format: functional, Salmonella enterica subsp. enterica serovar Typhi; details: Salmonella enterica, read-out: IZ
# Escherichia coli [36] = test: Inhibition of DNA gyrase mRNA expression in Escherichia coli measured up to 24 hrs by RT-PCR; format: functional, organism-based
# Escherichia coli [37] = test: Antibacterial activity against Escherichia coli at 5 ug after 24 hrs by disc diffusion assay; format: functional; details: read-out: IZ
# Escherichia coli [38] = test: Antibacterial activity against Escherichia coli at 20 ug after 24 hrs by disc diffusion assay; format: functional; details: read-out: IZ
# Escherichia coli [39] = test: Antibacterial activity against Escherichia coli at 25 ug after 24 hrs by disc diffusion assay; format: functional; details: read-out: IZ
structure (smiles),measurement,setting,value
O=C(O)c1cn(C2CC2)c2cc(N3CCNCC3)c(F)cc2c1=O [CIPROFLOXACIN],zone of inhibition at 10 µg/disc,Salmonella typhi [1],16 mm
same,zone of inhibition at 15 µg/disc,Salmonella typhi [2],18 mm
same,zone of inhibition at 20 µg/disc,Salmonella typhi [3],22 mm
same,zone of inhibition at 25 µg/disc,Salmonella typhi [4],24 mm
same,zone of inhibition at 5 µg/disc,Bacillus subtilis [5],6 mm
same,zone of inhibition at 10 µg/disc,Bacillus subtilis [6],7 mm
same,zone of inhibition at 15 µg/disc,Bacillus subtilis [7],9 mm
same,zone of inhibition at 20 µg/disc,Bacillus subtilis [8],10 mm
same,zone of inhibition at 25 µg/disc,Bacillus subtilis [9],12 mm
same,DNA gyrase inhibition (active/inactive),Escherichia coli [10],Active
same,inhibition,Escherichia coli [11],Active
same,MIC50,Staphylococcus aureus [12],0.5 µg/mL
same,MIC90,Staphylococcus aureus [12],1 µg/mL
same,MIC90,Escherichia coli [13],1 µg/mL
same,MIC50,Klebsiella pneumoniae [14],0.5 µg/mL
same,MIC90,Klebsiella pneumoniae [14],1 µg/mL
same,MIC50,Pseudomonas aeruginosa [15],0.5 µg/mL
same,MIC90,Pseudomonas aeruginosa [15],1 µg/mL
same,MIC50,Salmonella typhi [16],0.5 µg/mL
same,MIC90,Salmonella typhi [16],1 µg/mL
same,MIC50,Bacillus subtilis [17],0.5 µg/mL
same,MIC90,Bacillus subtilis [17],1 µg/mL
same,zone of inhibition at 5 µg/disc,Staphylococcus aureus [18],22 mm
same,zone of inhibition at 10 µg/disc,Staphylococcus aureus [19],24 mm
same,zone of inhibition at 15 µg/disc,Staphylococcus aureus [20],26 mm
same,zone of inhibition at 20 µg/disc,Staphylococcus aureus [21],30 mm
same,zone of inhibition at 25 µg/disc,Staphylococcus aureus [22],36 mm
same,zone of inhibition at 10 µg/disc,Escherichia coli [23],16 mm
same,zone of inhibition at 15 µg/disc,Escherichia coli [24],18 mm
same,zone of inhibition at 5 µg/disc,Pseudomonas aeruginosa [25],12 mm
same,zone of inhibition at 10 µg/disc,Pseudomonas aeruginosa [26],14 mm
same,zone of inhibition at 15 µg/disc,Pseudomonas aeruginosa [27],16 mm
same,zone of inhibition at 20 µg/disc,Pseudomonas aeruginosa [28],20 mm
same,zone of inhibition at 25 µg/disc,Pseudomonas aeruginosa [29],23 mm
same,zone of inhibition at 5 µg/disc,Klebsiella pneumoniae [30],24 mm
same,zone of inhibition at 10 µg/disc,Klebsiella pneumoniae [31],26 mm
same,zone of inhibition at 15 µg/disc,Klebsiella pneumoniae [32],30 mm
same,zone of inhibition at 20 µg/disc,Klebsiella pneumoniae [33],34 mm
same,zone of inhibition at 25 µg/disc,Klebsiella pneumoniae [34],36 mm
same,zone of inhibition at 5 µg/disc,Salmonella typhi [35],14 mm
CCC1[C@@H]2c3c(c4ccccc4n(C)c3=O)OC(c3ccccc3)[C@H]2CN1OS(=O)(=O)c1ccc(C)cc1 (mixture of isomers),zone of inhibition at 10 µg/disc,Salmonella typhi [1],16 mm
same,zone of inhibition at 15 µg/disc,Salmonella typhi [2],18 mm
same,zone of inhibition at 20 µg/disc,Salmonella typhi [3],20 mm
same,zone of inhibition at 25 µg/disc,Salmonella typhi [4],22 mm
same,zone of inhibition at 10 µg/disc,Bacillus subtilis [6],7 mm
same,zone of inhibition at 15 µg/disc,Bacillus subtilis [7],9 mm
same,zone of inhibition at 20 µg/disc,Bacillus subtilis [8],10 mm
same,zone of inhibition at 25 µg/disc,Bacillus subtilis [9],12 mm
same,DNA gyrase inhibition (active/inactive),Escherichia coli [10],Active
same,inhibition,Escherichia coli [11],Active
same,inhibition of gyrase mRNA expression (active/not active),Escherichia coli [36],Active
same,MIC50,Staphylococcus aureus [12],128 µg/mL
same,MIC90,Staphylococcus aureus [12],128 µg/mL
same,MIC50,Escherichia coli [13],128 µg/mL
same,MIC90,Escherichia coli [13],128 µg/mL
same,MIC50,Klebsiella pneumoniae [14],128 µg/mL
same,MIC90,Klebsiella pneumoniae [14],128 µg/mL
same,MIC50,Pseudomonas aeruginosa [15],128 µg/mL
same,MIC90,Pseudomonas aeruginosa [15],128 µg/mL
same,MIC50,Salmonella typhi [16],128 µg/mL
same,MIC90,Salmonella typhi [16],128 µg/mL
same,MIC50,Bacillus subtilis [17],128 µg/mL
same,MIC90,Bacillus subtilis [17],128 µg/mL
same,zone of inhibition at 5 µg/disc,Staphylococcus aureus [18],9 mm
same,zone of inhibition at 10 µg/disc,Staphylococcus aureus [19],12 mm
same,zone of inhibition at 15 µg/disc,Staphylococcus aureus [20],13 mm
same,zone of inhibition at 20 µg/disc,Staphylococcus aureus [21],14 mm
same,zone of inhibition at 25 µg/disc,Staphylococcus aureus [22],17 mm
same,zone of inhibition at 5 µg/disc,Escherichia coli [37],10 mm
same,zone of inhibition at 10 µg/disc,Escherichia coli [23],16 mm
same,zone of inhibition at 15 µg/disc,Escherichia coli [24],18 mm
same,zone of inhibition at 20 µg/disc,Escherichia coli [38],20 mm
same,zone of inhibition at 25 µg/disc,Escherichia coli [39],23 mm
same,zone of inhibition at 5 µg/disc,Pseudomonas aeruginosa [25],10 mm
same,zone of inhibition at 10 µg/disc,Pseudomonas aeruginosa [26],16 mm
same,zone of inhibition at 15 µg/disc,Pseudomonas aeruginosa [27],17 mm
same,zone of inhibition at 20 µg/disc,Pseudomonas aeruginosa [28],22 mm
same,zone of inhibition at 25 µg/disc,Pseudomonas aeruginosa [29],24 mm
same,zone of inhibition at 5 µg/disc,Klebsiella pneumoniae [30],20 mm
same,zone of inhibition at 10 µg/disc,Klebsiella pneumoniae [31],26 mm
same,zone of inhibition at 15 µg/disc,Klebsiella pneumoniae [32],30 mm
same,zone of inhibition at 20 µg/disc,Klebsiella pneumoniae [33],34 mm
same,zone of inhibition at 25 µg/disc,Klebsiella pneumoniae [34],36 mm
same,zone of inhibition at 5 µg/disc,Salmonella typhi [35],10 mm
